System: Grapholyta molesta
Assay: Open field trial, foliar application on peach trees against Grapholyta molesta
Format: in vivo
Settings: timing ABC; for Alive larvae per 100 fruit / Deep holes per 100 fruit: 12 days after final application; for % control on alive larvae / % control on deep holes: Abbott equation
Text: Another open field trial is set up to evaluate the efficacy and selectivity of Compound A against Grapholyta molesta for peach trees (Amiga variety). The trial is designed as randomized complete block with four replications. Compound A is applied only twice (Timing A, and B), while all other treatments are applied three times (Timing A, B and C) where each application is about one week apart.
Treatments are sprayed using a mist spray multi plot equipment, designed for efficacy trials with four independent series of 8 nozzles (ALBUZ, ATR 80 Yellow) and calibrated to apply a spray volume of 1200 L/ha at a pressure of 450 Kpa. The applications target the egg lay stage of second generation at the crop growth stage of BBCH 73-75, 75-76 and 76-77 respectively for timing A, B and C. At twelve days after the final application, the efficacy assessment is carried out on 100 fruits/plot assessing the number of damaged fruits (distinct as superficial stings and deep holes) and the number of alive larvae.
Results are shown in Table 3, where data assessed are also transformed to a percentage of control using Abbott equation. Data are examined according to the Bartlett's test for homogeneity of variance. The treatment means of the assessment data are calculated and compared using Tukey's HSD test (p=0.05). In the untreated there are 18 alive larvae found in 100 fruits/plot, which represented a high infestation situation

[1] = 680 g ai/ha, first listed formulation (Table 3 order: (1) CS 200 g ai/L)
[2] = 680 g ai/ha, second listed formulation (Table 3 order: (2) EC 225 g ai/L)
[3] = 850 ai/ha, second listed formulation (Table 3 order: (2) EC 225 g ai/L)
[4] = 850 g ai/ha, first listed formulation (Table 3 order: (1) CS 200 g ai/L)
[5] = 1020 g ai/ha, first listed formulation (Table 3 order: (1) CS 200 g ai/L)
[6] = 1020 g ai/ha, second listed formulation (Table 3 order: (2) EC 225 g ai/L)

For `COP(=S)(OC)Oc1nc(Cl)c(Cl)cc1Cl` [Chlorpyriphos-Methyl], the “Alive larvae per 100 fruit” value [1] was 0.0 b per 100 fruit, the “Deep holes per 100 fruit” value [1] was 3 b per 100 fruit and the “Alive larvae per 100 fruit” value [2] was 0.0 b per 100 fruit. For the same compound, the “Deep holes per 100 fruit” value [2] was 3 b per 100 fruit, the “% control on alive larvae” value [1] was 100.0 a % and the “% control on deep holes” value [1] was 81.3 c %. The “% control on alive larvae” value [2] was 100.0 a %, the “% control on deep holes” value [2] was 85.8 bc % and the “Alive larvae per 100 fruit” value [3] was 0.0 b per 100 fruit. The “Deep holes per 100 fruit” value [3] was 2 b per 100 fruit, the “% control on alive larvae” value [3] was 100.0 a % and the “% control on deep holes” value [3] was 93.0 bc %. The “Alive larvae per 100 fruit” value [4] was 0.0 b per 100 fruit, the “Deep holes per 100 fruit” value [4] was 2 b per 100 fruit and the “% control on alive larvae” value [4] was 100.0 a %. For the same compound, the “% control on deep holes” value [4] was 93.4 abc %, the “Alive larvae per 100 fruit” value [5] was 0.0 b per 100 fruit and the “Deep holes per 100 fruit” value [5] was 0 b per 100 fruit. The “Alive larvae per 100 fruit” value [6] was 0.0 b per 100 fruit, the “Deep holes per 100 fruit” value [6] was 0 b per 100 fruit and the “% control on alive larvae” value [5] was 100.0 a %. The “% control on deep holes” value [5] was 100.0 a %, the “% control on alive larvae” value [6] was 100.0 a % and the “% control on deep holes” value [6] was 100.0 a %.
For `CCOP(=S)(OCC)Oc1nc(Cl)c(Cl)cc1Cl` [Chlorpyriphos-Ethyl], the “Alive larvae per 100 fruit” value (1080 g ai/ha, EC 480 g ai/L) was 0.0 b per 100 fruit, the “Deep holes per 100 fruit” value (1080 g ai/ha, EC 480 g ai/L) was 0 b per 100 fruit and the “% control on alive larvae” value (1080 g ai/ha, EC 480 g ai/L) was 100.0 a %. For the same compound, the “% control on deep holes” value (1080 g ai/ha, EC 480 g ai/L) was 100.0 a %.

Source: US20180055055A1, “FOLIAR APPLICATIONS FOR CONTROLLING LEPIDOPTERAN PESTS FOR FRUITS AND/OR FRUIT TREES” (priority 2016, published 2018)
